Experimental data: patent US11091484B2, “Tricyclic heterocycles as BET protein inhibitors” (Incyte Corporation, priority 2013, dated 2021)
Structures can show the parent of a compound that is named as a salt. Where two headings read alike, the source gives them in different places.

How the values were obtained:
[1] = tested on: KMS.12.BM cell line (human myeloma); experiment: KMS.12.BM cell viability assay; type: cell-based; conditions: KMS.12.BM cells, 3 days, Cell Titer-GLO ATP quantitation, read-out: KMS cellular IC50
Experimental: KMS. 12.BM cell line (human myeloma) was purchased from JCRB (Osaka, Japan) and maintained in RPMI with 10% FBS culture medium. To measure the cytotoxic activity of the compounds through ATP quantitation, the KMS. 12.BM cells are plated in the RPMI culture medium at 5000 cells/well/per 100 μL into a 96-well polystyrene clear black tissue culture plate (Greiner-bio-one through VWR, NJ), in the presence or absence of a concentration range of test compounds. After 3 days, […] Cell Titer-GLO Luminescent (Promega, Madison, Wis.) cell culture agent is added to each well for 10 minutes at room temperature to stabilize the luminescent signal. This determines the number of viable cells in culture based on quantitation of the ATP present, which signals the presence of metabolically active cells. Luminescence is measured with the Top Count 384 (Packard Bioscience through Perkin Elmer, Boston, Mass.). […] IC50 data for the Examples is presented in Table 4 as determined by Assay B1.

[2] = target: BRD4-BD2 (Homo sapiens (Human), UniProt O60885); experiment: BRD4 AlphaScreen assay (BRD4-BD2); type: binding; conditions: H4Ac4 peptide, 20 nM BRD4-BD2, read-out: BRD4 BD-2 enzyme IC50
Experimental: (§1) BRD4-BD1 and BRD4-BD2 assays were conducted in white 384-well polystyrene plate in a final volume of 20 μL for BD1 and 40 μL for BD2. Inhibitors were first serially diluted in DMSO and added to the plate wells before the addition of other reaction components. The final concentration of DMSO in the assay was 1.25% (BD1) and 0.83% (BD2). The assays were carried out at room temperature for 75 min. in the assay buffer (50 mM HEPES, pH 7.4, 100 mM NaCl, 0.05% CHAPS, 0.01% BSA), containing 50 nM Biotin-labeled tetra-acetylated histone H4 peptide (H4Ac4), 3.8 nM (BRD4-BD1, BPS Bioscience #31040) or 20 nM (BRD4-BD2, BPS Bioscience #31041). The reaction followed by the addition of 20 μL of assay buffer supplemented with Streptavidin donor beads (PerkinElmer 6760002) and GSH Acceptor beads (PerkinElmer-AL109C) at 4 μg/mL under reduced light. After plate sealing, the plate was incubated in the dark at room temperature for 75 min. before reading on a PHERAstar FS plate reader (BMG Labtech). IC50 determination was performed by fitting the curve of percent control activity versus the log of the inhibitor concentration using the GraphPad Prism 5.0 software.

[3] = target: BRD4-BD1 (Homo sapiens (Human), UniProt O60885); experiment: BRD4 AlphaScreen assay (BRD4-BD1); type: binding; conditions: H4Ac4 peptide, 3.8 nM BRD4-BD1, read-out: BRD4 BD-1 enzyme IC50
Experimental: as §1

| Structure (SMILES) | IC50 ([1]; Homo sapiens, 72 h) [nM] | IC50 [1] [nM] | IC50 [2] [nM] | IC50 [3] [nM] |
| --- | --- | --- | --- | --- |
| Cc1nnc2ccc3c(cc(-c4ccn(CCC(=O)N(C)C)n4)n3Cc3cccc(Cl)c3)n12 [Example 103, 3-{3-[6-(3-chlorobenzyl)-1-methyl-6H-pyrrolo[2,3-e][1,2,4]triazolo[4,3-a]pyridin-7-yl]-1H-pyrazol-1-yl}-N,N-dimethylpropanamide] | ≤ 1000 | – | – | – |
| Cc1nnc2ccc3c(cc(-c4cc[nH]n4)n3Cc3cccc(CN4CCC4)c3)n12 [Example 182, 6-[3-(Azetidin-1-ylmethyl)benzyl]-1-methyl-7-(1H-pyrazol-3-yl)-6H-pyrrolo[2,3-e][1,2,4]triazolo[4,3-a]pyridine tris(trifluoroaceate) Salt] | – | ≤ 1000 | – | – |
| Cc1cc2c(cc(N[C@H]3CCN(C)[C@@H](C)C3)c3nnc(C)n32)n1Cc1ccccc1 (racemic) [Example 224, 6-Benzyl-N-[(2S,4S)-1,2-dimethylpiperidin-4-yl]-1,7-dimethyl-6H-pyrrolo[2,3-e][1,2,4]triazolo[4,3-a]pyridin-4-amine and 6-Benzyl-N-[(2R,4R)-1,2-dimethylpiperidin-4-yl]-1,7-dimethyl-6H-pyrrolo[2,3-e][1,2,4]triazolo[4,3-a]pyridin-4-amine (Racemic Mixture Prepared)] | ≤ 1000 | – | ≤ 100 | ≤ 100 |
